# Experimental data taken from BindingDB's records for patent US9102669 (Janssen Pharmaceutica, 2015).
# pIC50: −log10 of the molar value.
# Biological target: T1, Acyl-CoA desaturase 1 (Rattus norvegicus, UniProt P07308)
# T1 sequence (P07308 whole entry): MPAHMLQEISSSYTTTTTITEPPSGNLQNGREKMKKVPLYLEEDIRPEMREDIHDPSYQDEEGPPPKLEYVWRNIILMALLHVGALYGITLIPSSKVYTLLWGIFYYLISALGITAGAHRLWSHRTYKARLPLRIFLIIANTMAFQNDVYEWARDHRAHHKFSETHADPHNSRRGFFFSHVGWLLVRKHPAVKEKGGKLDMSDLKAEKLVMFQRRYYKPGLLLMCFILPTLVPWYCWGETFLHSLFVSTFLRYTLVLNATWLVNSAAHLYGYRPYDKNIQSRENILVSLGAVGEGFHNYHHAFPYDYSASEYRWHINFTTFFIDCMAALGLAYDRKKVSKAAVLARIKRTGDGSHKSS
# Experiment: Enzymatic Assay
# Settings: 25 °C
# Method: The SCD1 enzymatic assay was done in a volume of 50 μL using 10 μg of RLM (prepared as described above) in a 96-well polypropylene plate (enzyme reaction buffer contains 0.1 M K-Phosphate Buffer, 10 mM ATP, 6 mM MgCl2. 1 mM CoA, 1 mM β-NADH, 1.6 mM L-glutathione, 20 μM Stearoyl-CoA). […] Test compound was then added to the reaction mixture at the selected concentration. After incubation at room temperature for 2 hours, 5 μL 1 N HCl was added to stop the reaction, followed by addition of 25 μL of 10% charcoal. The reaction mixture was then transferred to 96-well Multiscreen plate (Millipore, Cat#MSFCN6B50).
smiles,measurement,value
"Cn1cc(-c2ccc(N3CCC(N4CCc5c(Cl)cc(Cl)cc54)CC3)nn2)cn1 [US9102669, 68]",pIC50,< 6.00
